Experimental data reported in ChEMBL document CHEMBL1201862, “PubChem BioAssay data set” (2004).
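Results reflect a 48-hour exposure of cells in 96-well plates to compound at five concentrations. GI50 is the concentration that inhibits growth by half.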 Activity calls are given as the source filed them. Cut-off read from the data, not from the text of the source: active = GI50 up to about 1.1 µM and inactive = higher.

Columns and labels:
Test in all cases: DTP human tumour cell line panel, 48 h
786-0 = test system: 786-0
A549 = test system: A549
ACHN = test system: ACHN
BT-549 = test system: BT-549
CAKI-1 = test system: CAKI-1
CCRF-CEM = test system: CCRF-CEM
COLO 205 = test system: COLO 205
DU-145 = test system: DU-145
EKVX = test system: EKVX
HCT-116 = test system: HCT-116
HCT-15 = test system: HCT-15
HL-60 = test system: HL-60
HOP-62 = test system: HOP-62
HOP-92 = test system: HOP-92
HT-29 = test system: HT-29
Hs-578T = test system: Hs-578T
IGROV-1 = test system: IGROV-1
K562 = test system: K562
KM12 = test system: KM12
LOX IMVI = test system: LOX IMVI
M14 = test system: M14
MCF7 = test system: MCF7
MDA-MB-435 = test system: MDA-MB-435
MDA-N = test system: MDA-N
MOLT-4 = test system: MOLT-4
Malme-3M = test system: Malme-3M
NCI-H226 = test system: NCI-H226
NCI-H23 = test system: NCI-H23
NCI-H460 = test system: NCI-H460
NCI-H522 = test system: NCI-H522
NCI/ADR-RES = test system: NCI/ADR-RES
OVCAR-3 = test system: OVCAR-3
OVCAR-4 = test system: OVCAR-4
OVCAR-5 = test system: OVCAR-5
OVCAR-8 = test system: OVCAR-8
PC-3 = test system: PC-3
RPMI-8226 = test system: RPMI-8226
SF-268 = test system: SF-268
SF-295 = test system: SF-295
SK-MEL-28 = test system: SK-MEL-28
SK-MEL-2 = test system: SK-MEL-2
SK-MEL-5 = test system: SK-MEL-5
SK-OV-3 = test system: SK-OV-3
SN12C = test system: SN12C
SNB-19 = test system: SNB-19
SNB-75 = test system: SNB-75
SR = test system: SR
SW-620 = test system: SW-620
T47D = test system: T47D
TK-10 = test system: TK-10
U-251 = test system: U-251
UACC-257 = test system: UACC-257
UACC-62 = test system: UACC-62
UO-31 = test system: UO-31
A498 = test system: A498
HCC 2998 = test system: HCC 2998
MDA-MB-231 = test system: MDA-MB-231
SF-539 = test system: SF-539
RXF 393 = test system: RXF 393

CC1(C)CC2C(/C1=N/O)C1(C)CCCC2(C)C1O (stereo not drawn)
GI50 (786-0): > 100 µM (inactive) | GI50 (A549): > 100 µM (inactive) | GI50 (ACHN): > 100 µM (inactive) | GI50 (BT-549): > 100 µM (inactive) | GI50 (CAKI-1): > 100 µM (inactive) | GI50 (CCRF-CEM): > 100 µM (inactive) | GI50 (COLO 205): > 100 µM (inactive) | GI50 (DU-145): > 100 µM (inactive) | GI50 (EKVX): > 100 µM (inactive) | GI50 (HCT-116): > 100 µM (inactive) | GI50 (HCT-15): > 100 µM | GI50 (HL-60): > 100 µM (inactive) | GI50 (HOP-62): > 100 µM (inactive) | GI50 (HOP-92): > 100 µM (inactive) | GI50 (HT-29): > 100 µM (inactive) | GI50 (Hs-578T): > 100 µM (inactive) | GI50 (IGROV-1): > 100 µM (inactive) | GI50 (K562): > 100 µM (inactive) | GI50 (KM12): > 100 µM (inactive) | GI50 (LOX IMVI): > 100 µM (inactive) | GI50 (M14): > 100 µM (inactive) | GI50 (MCF7): > 100 µM (inactive) | GI50 (MDA-MB-435): > 100 µM (inactive) | GI50 (MDA-N): > 100 µM (inactive) | GI50 (MOLT-4): > 100 µM (inactive) | GI50 (Malme-3M): > 100 µM (inactive) | GI50 (NCI-H226): > 100 µM (inactive) | GI50 (NCI-H23): > 100 µM (inactive) | GI50 (NCI-H460): > 100 µM (inactive) | GI50 (NCI-H522): > 100 µM (inactive) | GI50 (NCI/ADR-RES): > 100 µM (inactive) | GI50 (OVCAR-3): > 100 µM (inactive) | GI50 (OVCAR-4): > 100 µM (inactive) | GI50 (OVCAR-5): > 100 µM (inactive) | GI50 (OVCAR-8): > 100 µM (inactive) | GI50 (PC-3): > 100 µM (inactive) | GI50 (RPMI-8226): > 100 µM (inactive) | GI50 (SF-268): > 100 µM (inactive) | GI50 (SF-295): > 100 µM (inactive) | GI50 (SK-MEL-28): > 100 µM (inactive) | GI50 (SK-MEL-2): > 100 µM (inactive) | GI50 (SK-MEL-5): > 100 µM (inactive) | GI50 (SK-OV-3): > 100 µM (inactive) | GI50 (SN12C): > 100 µM (inactive) | GI50 (SNB-19): > 100 µM (inactive) | GI50 (SNB-75): > 100 µM (inactive) | GI50 (SR): > 100 µM (inactive) | GI50 (SW-620): > 100 µM (inactive) | GI50 (T47D): > 100 µM (inactive) | GI50 (TK-10): > 100 µM (inactive) | GI50 (U-251): > 100 µM (inactive) | GI50 (UACC-257): > 100 µM (inactive) | GI50 (UACC-62): > 100 µM (inactive) | GI50 (UO-31): > 100 µM (inactive)

COc1cc(OC)cc(-n2c(N)c(-c3nc4ccccc4s3)c3ccc([N+](=O)[O-])cc3c2=O)c1
GI50 (786-0): 13.1 µM (inactive) | GI50 (A498): 28.4 µM (inactive) | GI50 (ACHN): 12.5 µM (inactive) | GI50 (BT-549): > 100 µM (inactive) | GI50 (CAKI-1): 31.8 µM (inactive) | GI50 (CCRF-CEM): 69.7 µM (inactive) | GI50 (COLO 205): 30.4 µM (inactive) | GI50 (DU-145): 43.8 µM (inactive) | GI50 (HCC 2998): 84.5 µM (inactive) | GI50 (HCT-116): 24.9 µM (inactive) | GI50 (HCT-15): 61.1 µM | GI50 (HL-60): 0.208 µM (active) | GI50 (HOP-92): 3.27 µM (inactive) | GI50 (HT-29): > 100 µM (inactive) | GI50 (Hs-578T): 27.7 µM (inactive) | GI50 (K562): 13.4 µM (inactive) | GI50 (KM12): 56.9 µM (inactive) | GI50 (LOX IMVI): > 100 µM (inactive) | GI50 (MCF7): > 100 µM (inactive) | GI50 (MDA-MB-231): 21.3 µM (inactive) | GI50 (MDA-MB-435): > 100 µM (inactive) | GI50 (MDA-N): > 100 µM (inactive) | GI50 (Malme-3M): 32.5 µM (inactive) | GI50 (NCI-H226): 25.7 µM (inactive) | GI50 (NCI-H23): 77.4 µM (inactive) | GI50 (NCI-H460): 32.7 µM (inactive) | GI50 (NCI-H522): 23.9 µM (inactive) | GI50 (NCI/ADR-RES): 24.9 µM (inactive) | GI50 (OVCAR-4): 17 µM (inactive) | GI50 (OVCAR-8): 13.3 µM (inactive) | GI50 (RPMI-8226): > 100 µM (inactive) | GI50 (SF-268): 57 µM (inactive) | GI50 (SF-295): 28.5 µM (inactive) | GI50 (SF-539): 13.4 µM (inactive) | GI50 (SK-MEL-28): > 100 µM (inactive) | GI50 (SK-MEL-5): 45.8 µM (inactive) | GI50 (SK-OV-3): 79.6 µM (inactive) | GI50 (SN12C): 18.4 µM (inactive) | GI50 (SNB-19): 18.1 µM (inactive) | GI50 (SNB-75): 27.8 µM (inactive) | GI50 (SR): 24.3 µM (inactive) | GI50 (SW-620): > 100 µM (inactive) | GI50 (T47D): 17.2 µM (inactive) | GI50 (TK-10): 13.3 µM (inactive) | GI50 (U-251): 34.1 µM (inactive) | GI50 (UACC-257): > 100 µM (inactive) | GI50 (UACC-62): > 100 µM (inactive) | GI50 (UO-31): 40.4 µM (inactive)

[N-]=[N+]=NC1=C(N=[N+]=[N-])c2cccc3cccc(c23)C1=O
GI50 (786-0): > 100 µM (inactive) | GI50 (A498): > 100 µM (inactive) | GI50 (A549): > 100 µM (inactive) | GI50 (ACHN): > 100 µM (inactive) | GI50 (BT-549): > 100 µM (inactive) | GI50 (CAKI-1): > 100 µM (inactive) | GI50 (CCRF-CEM): 67.9 µM (inactive) | GI50 (COLO 205): > 100 µM (inactive) | GI50 (EKVX): > 100 µM (inactive) | GI50 (HCC 2998): > 100 µM (inactive) | GI50 (HCT-116): > 100 µM (inactive) | GI50 (HCT-15): > 100 µM | GI50 (HOP-62): 49.7 µM (inactive) | GI50 (HOP-92): > 100 µM (inactive) | GI50 (HT-29): 76.7 µM (inactive) | GI50 (Hs-578T): > 100 µM (inactive) | GI50 (IGROV-1): 68.2 µM (inactive) | GI50 (K562): > 100 µM (inactive) | GI50 (KM12): 76.2 µM (inactive) | GI50 (LOX IMVI): > 100 µM (inactive) | GI50 (M14): > 100 µM (inactive) | GI50 (MCF7): > 100 µM (inactive) | GI50 (MDA-MB-231): 60.1 µM (inactive) | GI50 (MDA-MB-435): > 100 µM (inactive) | GI50 (MDA-N): < 0.01 µM (active) | GI50 (MOLT-4): 39.8 µM (inactive) | GI50 (Malme-3M): > 100 µM (inactive) | GI50 (NCI-H226): > 100 µM (inactive) | GI50 (NCI-H23): > 100 µM (inactive) | GI50 (NCI-H460): 58.9 µM (inactive) | GI50 (NCI-H522): > 100 µM (inactive) | GI50 (NCI/ADR-RES): > 100 µM (inactive) | GI50 (OVCAR-3): > 100 µM (inactive) | GI50 (OVCAR-4): > 100 µM (inactive) | GI50 (OVCAR-5): > 100 µM (inactive) | GI50 (OVCAR-8): > 100 µM (inactive) | GI50 (PC-3): > 100 µM (inactive) | GI50 (RPMI-8226): > 100 µM (inactive) | GI50 (RXF 393): 65.6 µM (inactive) | GI50 (SF-268): > 100 µM (inactive) | GI50 (SF-295): > 100 µM (inactive) | GI50 (SF-539): > 100 µM (inactive) | GI50 (SK-MEL-2): > 100 µM (inactive) | GI50 (SK-MEL-5): > 100 µM (inactive) | GI50 (SK-OV-3): > 100 µM (inactive) | GI50 (SN12C): > 100 µM (inactive) | GI50 (SNB-19): > 100 µM (inactive) | GI50 (SNB-75): > 100 µM (inactive) | GI50 (SR): 88.3 µM (inactive) | GI50 (SW-620): 57.7 µM (inactive) | GI50 (T47D): > 100 µM (inactive) | GI50 (TK-10): > 100 µM (inactive) | GI50 (U-251): 97.7 µM (inactive) | GI50 (UACC-257): > 100 µM (inactive) | GI50 (UACC-62): > 100 µM (inactive) | GI50 (UO-31): > 100 µM (inactive)
